Read-outs that look alike come from different tables or passages of the source.
Tests used:
[1] = system: AsPC1 human pancreatic carcinoma xenografts; assay: Antitumor efficacy in AsPC1 pancreatic xenografts in nude mice; format: in vivo
Experimental: Female (athymic nu/nu) nude mice were obtained from Charles River Laboratories (Wilmington, Mass.), while female SCID-beige mice were purchased from Taconic (Germantown, N.Y.). Mice were used when they were approximately 8-12 weeks old (nudes) or 8-10 weeks old (SCID-beige), and weighed approximately 23-25 grams. The health of all animals was determined daily by gross observation of experimental animals and by the analyses of blood samples of sentinel animals that were housed on the shared shelf racks. All animals were allowed to acclimate and recover from any shipping related stress for a minimum of 72 hours prior to experimental use. Autoclaved water and irradiated food [5058-ms Pico chow (mouse) Purina, Richmond, Ind.] were provided ad libitum, and the animals were maintained on a 12 hour light and dark cycle. Cages, bedding and water bottles were autoclaved before use and were changed weekly. MiaPaca2, AsPC1 and BxPC3 human pancreatic carcinoma cells were purchased from ATCC (Manassas, Va.). BxPC3 and AsPC1 cells were grown in RPMI medium and MiaPaca2 cells were grown in Dulbecco's Modified Essential Medium (DMEM). All culture media were supplemented with 10% (v/v) FBS and 1% (v/v) […]. […] SCID-biege mice were implanted se with 5×10^6 BxPC3 cells in a 1:1 mixture of matrigel:PBS in a volume of 0.2 ml per mouse in the right hind flank on May 22, 2007. […] Formulated compound and vehicle were stored at 4° C. and prepared weekly. The suspension was mixed vigorously prior to administration. Gemcitabine (Gemzar®, Eli Lilly and Company, Indianapolis, Ind., USA) was reconstituted with sterile saline to yield a stock solution of 38 mg/ml for the entire 3-4 week study. […] Nude mice implanted with MiaPaca2 or AsPC1 xenografts were randomized on day 17 and day 9 post cell implant, respectively. SCID-beige mice bearing BxPC3 xenografts were randomized 8 days post implant. […] Treatment for the MiaPaca2 study began on Feb. […] For the MiaPaca2 and AsPC1 studies, qd Compound (1) suspension or q3d gemcitabine treatment ended on day 37 post tumor cell implant, whereas for the BxPC3 study, qd Compound (1) suspension or q3d gemcitabine treatment ended on day 35 post tumor cell implant. For intermittent dosing of Compound (1) suspension in the AsPC1 study using the 7+/7− schedule×2 cycles, treatment ended on day 15, was reinitiated on day 23, and finally ended day 29. For intermittent dosing using the 3+/4− schedule×4 cycles, treatment ended on day 11, was reinitiated on day 16, ended day 18, was reinitiated on day 23, ended day 25, was reinitiated day 30, and finally ended on day 32. In the first combination group, daily Compound (1) was given simultaneously with q3d gemcitabine for a total of four weeks. For the remaining combination groups, Compound (1) and gemcitabine were given sequentially rather than simultaneously. In group 8 gemcitabine was dosed q3d during the 1st and 3rd weeks, whereas Compound (1) was given daily during the 2nd and 4th weeks only. In group 9, the order of compound dosing was reversed, with Compound (1) suspension given daily during the 1st and 3rd weeks, whereas gemcitabine was given q3d during the 2nd and 4th weeks. In group 10, gemcitabine was dosed q3d during the 1st and 2nd weeks, whereas Compound (1) was given daily during the 3rd and 4th weeks. In group 11, the order of compound dosing was reversed, with Compound (1) given daily during the 1st and 2nd weeks, and gemcitabine dosed q3d for the 3rd and 4th weeks. […]

in vivo = assay: in vivo
Experimental: Treatment began on Sep. 12, 2006 (day 26 post tumor cell implant). Compound (1) and vehicle were dosed as a suspension using a sterile 1 cc syringe and 18-gauge gavage needle (0.2 ml/animal) once (qd) or twice per day (bid) 8 hours apart for either 7, 14 or 21 days out of a 21 day schedule. For animals dosed for 7 days (7+/14−), treatment ended on Sep. 19, 2006 (day 33 post tumor cell implant). These mice were re-treated on day 67 with the same dose of compound (1) for another 7 days until day 74. For animals dose for 14 days (14+/7−) treatment ended on Sep. 26, 2006 (day 40 post tumor cell implant), and for animals dosed for 21 days, treatment ended on Oct. 3, 2006 (day 47 post tumor cell implant).
Weight loss was graphically represented as percent change in mean group body weight, using the formula: ((W−W0)/W0)×100, where ‘W’ represents mean body weight of the treated group at a particular day, and ‘W0’ represents mean body weight of the same treated group at initiation of treatment.

[2] = Plasma drug exposure in nude mice; format: in vivo; details: for Cmax / AUC(0-t): po, 10 mg/kg
Experimental: Plasma samples were prepared and analyzed for compound (1) by LC/MS/MS. Mean plasma concentrations were calculated from 2 animals/group/time point. Plasma samples with concentration below the limit of quantification (<12.5 ng/ml) were set to zero. The pharmacokinetic parameters were estimated from the mean plasma concentration data. Sampling times were reported as nominal time. The pharmacokinetic parameters reported are the maximum plasma concentration (Cmax), the area under the plasma concentration-time curve from zero to 8 hr (AUC0-8 hr), and dose normalized AUC (AUC0-8 hr/Dose). The Cmax values were taken directly from the plasma concentration-time profiles […] without any extrapolation. The AUC was calculated using the linear trapezoidal rule.

[3] = nude, mouse, in vivo, maximum tolerated dose (MTD)

In the case of `CC(C)(C(=O)NCC(F)(F)C(F)(F)F)C(=O)N[C@@H]1C(=O)Nc2ccccc2-c2ccccc21` [Compound (1), 2,2-Dimethyl-N—((S)-6-oxo-6,7-dihydro-5H-dibenzo[b,d]azepin-7-yl)-N′-(2,2,3,3,3-pentafluoro-propyl)-malonamide], the “% TGI” value ([1]; 3 mg/kg po qd × 28 days, day 37) is reported as 49%, the “% TGI” value ([1]; 10 mg/kg po qd × 28 days, day 37) is reported as 58% and the “% TGI” value ([1]; 10 mg/kg po, 3+/4− × 4 cycles) is reported as 32%. The “% TGI” value ([1]; 10 mg/kg po, 7+/7− × 2 cycles) was 41%, the animal deaths (in vivo; 30 mg/kg bid for 21 days, 10/group) was “two” and the mice died (in vivo; 60 mg/kg bid for 14 days, 10/group) was “four”. The mice died (in vivo; 60 mg/kg bid for 21 days, 10/group) was “seven”, the mice died (in vivo; 60 mg/kg qd for 21 days, 10/group) was “three” and the “maximum tolerated dose (MTD)” value (in vivo; nude, mouse, in vivo, 21 days) was 10 mg/kg. For the same compound, the MTD at 7 days (in vivo; [3]) was 60 mg/kg, the MTD at 14 days (in vivo; [3]) was 30 mg/kg and the “dose proportionality of plasma exposure” value ([2]; independent PK study in nude mice, up to 30 mg/kg) was “excellent dose proportionality”. The oral bioavailability ([2]; mouse) was “moderate to high”, the Cmax ([2]; nude, mouse, plasma, 10 mg/kg po qd, Day 21 (chronic dosing)) was 708 ng/mL and the AUC(0-t) ([2]; nude, mouse, plasma, 10 mg/kg po qd, Day 21 (chronic dosing), read-out: AUC0-8 hr) was 923 ng·h/mL. The Cmax ([2]; nude, mouse, plasma, 10 mg/kg po, Day 1 (single dose, naïve mice)) was 559 ng/mL, the AUC(0-t) ([2]; nude, mouse, plasma, 10 mg/kg po, Day 1 (single dose, naïve mice), read-out: AUC0-8 hr) was 1280 ng·h/mL and the AUC(0-t) ([2]; nude, mouse, plasma, oral daily dosing of 10 mg/kg, read-out: Exposures (AUC24h) producing efficacy) was about 1100 ng·h/mL. For the same compound, the AUC ([2]; nude, mouse, plasma, oral daily dosing of 10 mg/kg, read-out: Exposures producing efficacy (AUC24/day)) was about 1100 ng·h/mL.

Reference: patent US8741889B2, “Method of treating non-small cell lung cancer and colon cancer with gamma-secretase inhibitor” (Hoffmann-La Roche Inc, priority 2008, dated 2014)
